The values below come from US20060165683A1, “Methods and compositions for control of bone formation via modulation of sympathetic tone” (priority 2001, published 2006).

For experiment [1], the system named is human SaOS-2 osteoblastic cells. Put plainly: cAMP production in human SaOS-2 osteoblastic cells. The format is cell-based. Conditions: SaOS-2, 100 μM IBMX, 5 min treatment. Here is the method:
Primary osteoblast cultures were established as previously described (see, e.g., Ducy et al., 2000, Cell 100: 197-207) and maintained in αMEM/0.1 mg/ml ascorbic acid supplemented with 10% FBS. SaOS-2 were grown in MEM/10% FBS. For cAMP assay confluent cultures were incubated with serum free medium containing 100 μM IBMX (3-isobutyl-1-methylxanthine, Sigma) for 8 minutes before PBS, PTH(1-34) (Bachem), isoproterenol, norepinephrine, phenylephrine (Sigma) or propranolol were added for 5 min. Intracellular cAMP concentration was measured by immunoassay (R&D Systems). For gene expression analyses, primary osteoblasts were treated for 72 hours with appropriate drugs in 0.1% FBS. Hormone serum levels were quantified using immunoassays kits from Peninsula Laboratories (Insulin) or Alpco Diagnostics (leptin). Deoxypyridinoline cross-links and Creatinine were measured in morning urines using the Quidel kits. a1(I) leptin bioactivity was verified by cotransfection of 293 cells expressing ObRb with a STAT3-responsive-luc reporter construct, pSVβgal plasmid and a1(I) leptin expression vector or mock. Twenty-four hours later luciferase and β-galactosidase activities were measured. Data represents ratios of luciferase/β-galactosidase activities, and values are mean of 6 independent transfection experiments.
For a sympathetic regulation of bone formation to exist several requirements have to be fulfilled. The first one is that functional adrenergic receptors are present on osteoblasts. […] No other adrenergic receptor subtype could be detected. […] Thus, to assess the biologic relevance of the presence of β2-adrenergic receptors on osteoblasts, these cells were treated with isoproterenol, a β-adrenergic agonist, alone or in the presence of propranolol, a β-adrenergic receptor antagonist; with norepinephrine, the natural ligand of β-adrenergic receptors; with phenylephrine, an α-adrenergic agonist or with vehicle and measured cAMP production. […]

Experiment [2] concerns wt mice. Put plainly: Long-term isoproterenol treatment of wt mice. The format is in vivo, mouse. Here is the method:
Wildtype (C57BL/6J) and mutant (C57BL/6J A^y/a, C57BL/6J ob/ob) mice were obtained from the Jackson laboratory and adrenal medullectomized mice from Harlan Tecklad laboratory. Dbh−/− mice were rescued as previously described (Thomas et al., 1998, Neurochem 70:2468-2476). Isoproterenol (Sigma) was injected intraperitoneally (ip) once daily for 6 weeks at 30 mg/kg (wt) or 3 mg/kg (ob/ob). Propranolol (Sigma) was added to the drinking water at a concentration of 0.5 g/l. For ICV infusion, a 28-gauge cannula (Brain infusion kit II, Alza) was implanted into the third ventricle as previously described infusing human leptin (Sigma) at 8 ng/hr or MT-II at 125 ng/hr (Phoenix Pharmaceuticals) for 28 days (see, e.g., Ducy et al., 2000, Cell 100: 197-207). The cannula was connected to an osmotic pump (Alza) placed in the dorsal subcutaneous space of the animal. For parabiosis longitudinal incisions were made in the skin and in the peritoneal cavity along one side on each mouse. Edges of the incisions were connected by suture to induce coelioanastomosis. Cross-circulation was quantified by injecting 1 ml/kg 0.25% Evans blue into the tail vein of one mouse of the parabiosed pair. After 30 min. blood was collected from both mice by retroorbital bleeding and the blood exchange rate was calculated according to standard techniques (see, e.g., Harris & Martin, 1984, Am J Physiol 247:R380-386). […] Two weeks after parabiosis a pump delivering leptin ICV in one animal of each pair was implanted. For GTG lesioning, 4-week-old C57BL/6J mice were given a single ip injection of either PBS or GTG (0.5 mg/g). For MSG lesioning, 2 day-old C57BL/6J pups were injected daily subcutaneously with either PBS or MSG (2 mg/g) for 10 days.
Histological analyses were performed on undecalcified sections stained by von Kossa and counterstained by von Gieson (see, e.g., Ducy et al., 2000, Cell 100:197-207). Static and dynamic histomorphometric analyses were performed according to standard protocols (see, e.g., Parfitt et al., 1987, J Bone Miner Res 6:595-610) using the Osteomeasure Analysis System (Osteometrics, Atlanta). Six to 12 animals were analyzed for each group. Statistical significance was assessed by Student's t test.
To address this point one month-old ob/ob mice were treated for 6 weeks with the β-adrenergic agonist isoproterenol or vehicle. […] To determine the role of the SNS in animals that have none of the metabolic and neurological abnormalities caused by leptin deficiency, this experiment was repeated in wt mice.

Experiment [3] relates to wildtype mice. Put plainly: Central (ICV) infusion of leptin in wildtype mice. The format is in vivo, mouse. Here is the method:
(§1) Wildtype (C57BL/6J) and mutant (C57BL/6J A^y/a, C57BL/6J ob/ob) mice were obtained from the Jackson laboratory and adrenal medullectomized mice from Harlan Tecklad laboratory. Dbh−/− mice were rescued as previously described (Thomas et al., 1998, Neurochem 70:2468-2476). Isoproterenol (Sigma) was injected intraperitoneally (ip) once daily for 6 weeks at 30 mg/kg (wt) or 3 mg/kg (ob/ob). Propranolol (Sigma) was added to the drinking water at a concentration of 0.5 g/l. For ICV infusion, a 28-gauge cannula (Brain infusion kit II, Alza) was implanted into the third ventricle as previously described infusing human leptin (Sigma) at 8 ng/hr or MT-II at 125 ng/hr (Phoenix Pharmaceuticals) for 28 days (see, e.g., Ducy et al., 2000, Cell 100: 197-207). The cannula was connected to an osmotic pump (Alza) placed in the dorsal subcutaneous space of the animal. For parabiosis longitudinal incisions were made in the skin and in the peritoneal cavity along one side on each mouse. Edges of the incisions were connected by suture to induce coelioanastomosis. Cross-circulation was quantified by injecting 1 ml/kg 0.25% Evans blue into the tail vein of one mouse of the parabiosed pair. After 30 min. blood was collected from both mice by retroorbital bleeding and the blood exchange rate was calculated according to standard techniques (see, e.g., Harris & Martin, 1984, Am J Physiol 247:R380-386). […]

The subject of experiment [4] is Dbh-deficient mice. Put plainly: Leptin ICV infusion in Dbh-deficient mice. The format is in vivo, mouse. As for the experimental part:
as §1

For the molecule `CC(C)NCC(O)c1ccc(O)c(O)c1` (stereo not drawn) [isoproterenol], the cAMP production result in experiment [1] was “induced”. The “expression of uncoupling protein 1 (Ucp1) in brown adipose tissue” value in experiment [2] is on record as “increased”. In experiment [2] (30 mg/kg ip once daily, 6 weeks), the bone mass result is listed as “significantly decreased”. Moreover, in experiment [2] (30 mg/kg, 6 weeks), the body weight entry is listed as “without affecting”, the bone formation rate entry is “significantly decreased” and the osteoblast number entry is given as “significantly decreased”.

B1: leptin: polypeptide hormone, product of the ob gene; human leptin (Sigma) infused ICV (protein)
chain: VPIQKVQDDTKTLIKTIVTRINDISHTQSVSAKQRVTGLDFIPGLHPILSLSKMDQTLAVYQQVLTSLPSQNVLQIANDLENLRDLLHLLAFSKSCSLPQTSGLQKPESLDGVLEASLYSTEVVALSRLQGSLQDILQQLDVSPEC
In the case of B1, in experiment [3], the “bone mass / bone volume and bone formation parameters” value is listed as “decreased”. Also, in experiment [4], the bone mass entry is “failed to decrease” and the gonadal fat pad result is on record as “near disappearance”.
